The NIST ThermoML archive (doi:10.1016/j.jct.2009.03.010)
± gives the expanded uncertainty stated by the source.

Tests used:
[1] = Crystal; DTA
[2] = Molar enthalpy of transition or fusion; conditions: Crystal; DSC
[3] = molar heat capacity at constant pressure; conditions: 101.33 kPa, Crystal

Compound: c1cc2ccc3ccc4ccc5ccc6ccc1c1c2c3c4c5c61 [coronene]
- Normal melting temperature [1]: 436 ± 1.6 °C
- Molar enthalpy of transition or fusion [2]: 5.07 ± 0.359 kcal/mol
- molar heat capacity at constant pressure ([3]; 295 K, Small sample (50 mg) DSC): 312.97 ± 6.3 J/K/mol
- molar heat capacity at constant pressure ([3]; 298.15 K, DSC): 317.46 ± 14 J/K/mol
- molar heat capacity at constant pressure ([3]; 298.15 K, Small sample (50 mg) DSC): 317.17 ± 6.3 J/K/mol
- molar heat capacity at constant pressure ([3]; 300 K, Small sample (50 mg) DSC): 318.97 ± 6.4 J/K/mol
- molar heat capacity at constant pressure ([3]; 310 K, Small sample (50 mg) DSC): 333.99 ± 6.7 J/K/mol
- molar heat capacity at constant pressure ([3]; 320 K, Small sample (50 mg) DSC): 344.5 ± 6.9 J/K/mol
- molar heat capacity at constant pressure ([3]; 330 K, Small sample (50 mg) DSC): 355.32 ± 7.1 J/K/mol
- molar heat capacity at constant pressure ([3]; 340 K, Small sample (50 mg) DSC): 366.43 ± 7.3 J/K/mol
- molar heat capacity at constant pressure ([3]; 350 K, Small sample (50 mg) DSC): 373.94 ± 7.5 J/K/mol
- molar heat capacity at constant pressure ([3]; 360 K, Small sample (50 mg) DSC): 383.85 ± 7.7 J/K/mol
- molar heat capacity at constant pressure ([3]; 370 K, Small sample (50 mg) DSC): 394.66 ± 7.9 J/K/mol
- molar heat capacity at constant pressure ([3]; 380 K, Small sample (50 mg) DSC): 405.18 ± 8.1 J/K/mol
- molar heat capacity at constant pressure ([3]; 410 K, Small sample (50 mg) DSC): 417.19 ± 8.3 J/K/mol
- molar heat capacity at constant pressure ([3]; 420 K, Small sample (50 mg) DSC): 422.3 ± 8.4 J/K/mol
- molar heat capacity at constant pressure ([3]; 430 K, Small sample (50 mg) DSC): 435.51 ± 8.7 J/K/mol
- molar heat capacity at constant pressure ([3]; 440 K, Small sample (50 mg) DSC): 439.12 ± 8.8 J/K/mol
- molar heat capacity at constant pressure ([3]; 450 K, Small sample (50 mg) DSC): 447.82 ± 9 J/K/mol
- molar heat capacity at constant pressure ([3]; 460 K, Small sample (50 mg) DSC): 453.83 ± 9.1 J/K/mol
- molar heat capacity at constant pressure ([3]; 470 K, Small sample (50 mg) DSC): 463.44 ± 9.3 J/K/mol
- molar heat capacity at constant pressure ([3]; 478 K, Small sample (50 mg) DSC): 470.65 ± 9.4 J/K/mol
